What was measured:
human mGluR5d = molecular target: T1, human mGluR5d (Homo sapiens, UniProt P41594); experiment: FLIPR assay, mobilization of intracellular calcium in cells expressing human mGluR5d; type: cell-based; conditions: antagonism in cells expressing human mGluR5d, fluo-4 calcium signal; read-out: FLIPR hmGluR5d
T1 construct: expressed in transfected cells
Text: Functional Assessment of mGluR5 Antagonism in Cell Lines Expressing mGluR5D
The properties of the compounds of the invention can be analyzed using standard assays for pharmacological activity. Examples of glutamate receptor assays are well known in the art as described in for example Aramori et al., Neuron 8:757 (1992), Tanabe et al., Neuron 8:169 (1992), Miller et al., J. Neuroscience 15: 6103 (1995), Balazs, et al., J. Neurochemistry 69:151 (1997). The methodology described in these publications is incorporated herein by reference. Conveniently, the compounds of the invention can be studied by means of an assay (FLIPR) that measures the mobilization of intracellular calcium, [Ca^2+]i in cells expressing mGluR5 or another assay (IP3) that measures inositol phosphate accumulation.
Cells expressing human mGluR5d as described in WO97/05252 cultured in a mixture of high glucose DMEM with Glutamax (31966-021) (500 mL), 10% dialyzed fetal bovine serum (Hyclone #SH30079.03)(56 mL), 200 ug/mL Hygromycin B (Invitrogen 45-0430, 50 mg/mL) (2.2 mL), 200 ug/mL Zeocin (Invitrogen #R250-01; 100 mg/mL) (1.1 mL) are seeded at a density of 15,000 cells per well on a black poly-D Lysin coated 384-plate with clear bottom (BD Biocoat 356663). Cells are allowed to adhere over night before experiments. All assays are done in a buffer containing 146 mM NaCl, 5 mM KCl, 1 mM MgCl2, 1 mM CaCl2, 20 mM HEPES, 1 mg/mL glucose and 1 mg/mL BSA Fraction IV (pH 7.4). Cell cultures in the 384-well plates are loaded for 60 minutes in the above mentioned buffer containing 3 μM of the acetoxymethyl ester form of the fluorescent calcium indicator fluo-4 (Molecular Probes, Eugene, Oreg.) in 0.025% pluronic acid (a proprietary, non-ionic surfactant polyol—CAS Number 9003-11-6). Following the loading period, the fluo-4 buffer is removed and the cellplate is washed three times with fresh assay buffer. FLIPR experiments are done using a laser setting of 1.0 W and 0.4 second CCD camera shutter speed with excitation and emission wavelengths of 488 nm and 562 nm, respectively.
Each experiment is initiated with 20 μl of buffer present in each well of the cell plate when 7.5 μl from the antagonist plate is added. After 30 minutes incubation in the dark at 25° C., 20 μL from the agonist plate is added to the wells. The fluorescence signal is sampled 60 times at 1 second intervals followed by 20 samples at 6 seconds intervals immediately after the agonist addition. Responses are measured as the difference between the peak height of the response to agonist, less the background fluorescence within the sample period. IC50 determinations are made using a […] least squares fitting program.

[1] = Determination of brain to plasma ratio in rat; type: in vivo; conditions: brain and plasma, female Sprague Dawley rats, drug in brain over drug in plasma, read-out: Brain/Plasma Ratio of compound in Rat
Method: Brain to plasma ratios are estimated in female Sprague Dawley rats. The compound is dissolved in water or another appropriate vehicle. For determination of brain to plasma ratio the compound is administrated as a subcutaneous, or an intravenous bolus injection, or an intravenous infusion, or an oral administration. At a predetermined time point after the administration a blood sample is taken with cardiac puncture. The rat is terminated by cutting the heart open, and the brain is immediately retained. The blood samples are collected in heparinized tubes and centrifuged within 30 minutes, in order to separate the plasma from the blood cells. The plasma is transferred to 96-well plates and stored at −20° C. until analysis. The brains are divided in half, and each half is placed in a pre-tarred tube and stored at −20° C. until analysis. Prior to the analysis, the brain samples are thawed and 3 mL/g brain tissue of distilled water is added to the tubes. The brain samples are sonicated in an ice bath until the samples are homogenized. Both brain and plasma samples are precipitated with acetonitrile. After centrifugation, the supernatant is diluted with 0.2% formic acid. Analysis is performed on a short reversed-phase HPLC column with rapid gradient elution and MSMS detection using a triple quadrupole instrument with electrospray ionisation and Selected Reaction Monitoring (SRM) acquisition. Liquid-liquid extraction may be used as an alternative sample clean-up. The samples are extracted, by shaking, to an organic solvent after addition of a suitable buffer. An aliquot of the organic layer is transferred to a new vial and evaporated to dryness under a stream of nitrogen. After reconstitution of the residuals the samples are ready for injection onto the HPLC column.

T1 sequence (P41594 21-942 isoform P41594-3 limits assumed): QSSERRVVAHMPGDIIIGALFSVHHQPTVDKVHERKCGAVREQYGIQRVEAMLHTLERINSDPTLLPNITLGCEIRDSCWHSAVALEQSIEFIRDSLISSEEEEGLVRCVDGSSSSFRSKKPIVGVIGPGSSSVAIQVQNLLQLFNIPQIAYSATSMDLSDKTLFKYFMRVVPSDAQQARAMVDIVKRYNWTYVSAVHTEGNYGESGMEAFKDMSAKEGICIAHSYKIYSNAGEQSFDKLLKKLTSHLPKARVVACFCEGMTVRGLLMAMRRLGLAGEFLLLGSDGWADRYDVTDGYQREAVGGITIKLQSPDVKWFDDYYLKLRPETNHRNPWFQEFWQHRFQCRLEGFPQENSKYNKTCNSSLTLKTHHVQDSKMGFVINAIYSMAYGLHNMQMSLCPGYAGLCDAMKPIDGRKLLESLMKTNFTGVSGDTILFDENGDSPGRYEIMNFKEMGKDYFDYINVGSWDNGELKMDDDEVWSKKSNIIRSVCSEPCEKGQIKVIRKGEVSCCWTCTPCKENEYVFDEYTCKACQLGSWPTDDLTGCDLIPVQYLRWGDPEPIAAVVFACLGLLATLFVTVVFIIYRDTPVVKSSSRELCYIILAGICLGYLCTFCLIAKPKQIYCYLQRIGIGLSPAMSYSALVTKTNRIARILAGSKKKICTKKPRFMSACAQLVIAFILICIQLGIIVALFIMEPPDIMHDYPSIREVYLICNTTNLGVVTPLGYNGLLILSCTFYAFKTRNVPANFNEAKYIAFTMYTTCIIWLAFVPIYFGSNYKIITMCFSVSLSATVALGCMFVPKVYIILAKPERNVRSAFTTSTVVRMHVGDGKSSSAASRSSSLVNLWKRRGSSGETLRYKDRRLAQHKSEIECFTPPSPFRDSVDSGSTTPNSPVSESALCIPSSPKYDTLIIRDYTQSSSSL

IC50 (human mGluR5d) [nM]	Kp [1]	Structure (SMILES)
146	< 0.01	Cc1cccc(-c2cc([C@@H](C)Sc3nnc(-c4cc[nH]c(=O)c4)n3C)no2)c1 [Example 8.5, (R)-4-(4-Methyl-5-(1-(5-m-tolylisoxazol-3-yl)ethylthio)-4H-1,2,4-triazol-3-yl)pyridin-2(1H)-one]
24	0.09	Cc1cccc(-c2nc([C@@H](C)Sc3nnc(-c4cc[nH]c(=O)c4)n3C)no2)c1 [Example 8.3]
18	< 0.015	C[C@@H](Sc1nnc(-c2cn[nH]c(=O)c2)n1C)c1nnn(-c2cccc(Cl)c2)n1 [Example 8.9, (R)-5-(5-(1-(2-(3-Chlorophenyl)-2H-tetrazol-5-yl)ethylthio)-4-methyl-4H-1,2,4-triazol-3-yl)pyridazin-3(2H)-one]
19	0.26	Cc1cccc(-c2cc([C@@H](C)Sc3nnc(-c4cn[nH]c(=O)c4)n3C)no2)c1 [Example 8.7, (R)-5-(4-Methy1-5-(1-(5-m-tolylisoxazol-3-yl)ethylthio)-4H-1,2,4-triazol-3-yl)pyridazin-3(2H)-one]
30	0.16	Cc1cccc(-c2nc([C@@H](C)Sc3nnc(-c4ccn(C)c(=O)c4)n3C)no2)c1 [Example 8.4, (R)-1-Methyl-4-(4-methyl-5-(1-(5-m-tolyl-1,2,4-oxadiazol-3-yl)ethylthio)-4H-1,2,4-triazol-3-yl)pyridin-2(1H)-one]
380	0.02	Cc1cccc(-c2cc([C@@H](C)Sc3nnc(-c4ccn(C)c(=O)c4)n3C)no2)c1 [Example 8.6, (R)-1-Methyl-4-(4-methyl-5-(1-(5-m-tolylisoxazol-3-yl)ethylthio)-4H-1,2,4-triazol-3-yl)pyridin-2(1H)-one]
41	0.04	Cc1cccc(-c2nc([C@@H](C)Sc3nnc(-c4cn[nH]c(=O)c4)n3C)no2)c1 [Example 8.10, (R)-5-(4-Methyl-5-(1-(5-m-tolyl-1,2,4-oxadiazol-3-yl)ethylthio)-4H-1,2,4-triazol-3-yl)pyridazin-3(2H)-one]
18	< 0.01	Cc1cccc(-n2nnc([C@@H](C)Sc3nnc(-c4cn[nH]c(=O)c4)n3C)n2)c1 [Example 8.8, (R)-5-(4-Methyl-5-(1-(2-m-tolyl-2H-tetrazol-5-yl)ethylthio)-4H-1,2,4-triazol-3-yl)pyridazin-3(2H)-one]
19	< 0.01	Cc1cccc(-n2nnc([C@@H](C)Sc3nnc(-c4cc[nH]c(=O)c4)n3C)n2)c1 [Example 8.1, (R)-4-(4-Methyl-5-(1-(2-m-tolyl-2H-tetrazol-5-yl)ethylthio)-4H-1,2,4-triazol-3-yl)pyridin-2(1H)-one]
87	0.1	Cc1cccc(-n2nnc([C@@H](C)Sc3nnc(-c4ccn(C)c(=O)c4)n3C)n2)c1 [Example 8.2, (R)-1-Methyl-4-(4-methyl-5-(1-(2-m-tolyl-2H-tetrazol-5-yl)ethylthio)-4H-1,2,4-triazol-3-yl)pyridin-2(1H)-one]

Reference: US20100273805A1, “SULPHIDE BRIDGED DERIVATIVES AS MODULATORS OF MGLUR5 733” (AstraZeneca AB, priority 2009, published 2010)
